Data published in US20260001914A1, “MACROCYCLIC PEPTIDES TARGETING KRAS” (Merck Sharp & Dohme LLC, priority 2022, published 2026).
*1 amine or outer side, *2 acyl side, *3 side chain or, on linkers, in order; H or OH if unused. Where a SMILES comes first, the peptide text is derived from it. Bridges are numbered along the chain shown (N, C = ends). [ ]: non-standard residue; d: D form. The star is where a group is joined. NMeNva(5-imidazol-1-yl) = CN[C@@H](CCCn1ccnc1)C(=O)O; Phe(4-guanidino) = N=C(N)Nc1ccc(C[C@H](N)C(=O)O)cc1; X18 = CNC(=N)N(C)c1ccc(C[C@H](N[*:1])C(=O)[*:2])cc1; Ala(pyrimidin-5-yl) = N[C@@H](Cc1cncnc1)C(=O)O; X71 = COc1c(F)cc(C[C@H](N[*:1])C(=O)[*:2])cc1F; X81 = Cc1ccc(C[C@H](N[*:1])C(=O)[*:2])c(F)n1; X33 = O=C([C@H](Cc1ccnc(F)c1F)N[*:1])[*:2]; Phe(4-Cl) = N[C@@H](Cc1ccc(Cl)cc1)C(=O)O; Ethyl(2-pyrrolidin-1-yl) = C1CCN(CC*)C1; Phe(3-Me) = Cc1cccc(C[C@H](N)C(=O)O)c1; X28 = O=C([C@H](Cc1ncccn1)N[*:1])[*:2]; 1Nal = N[C@@H](Cc1cccc2ccccc12)C(=O)O; NHCH2CH2SCH2CO = O=C(CSCCN[*:1])[*:2]; X35 = CN([C@@H](CCCF)C(=O)[*:2])[*:1]; Phe(2-F) = N[C@@H](Cc1ccccc1F)C(=O)O; NMe3Pal = CN[C@@H](Cc1cccnc1)C(=O)O; X1 = O=C(C12CC(CN[*:1])(C1)C2)[*:2]; X17 = O=C([C@H](CCCCF)N[*:1])[*:2]; Ala(cPr) = N[C@@H](CC1CC1)C(=O)O; NMeF = CN[C@@H](Cc1ccccc1)C(=O)O; PhLac = O=C(O)[C@@H](O)Cc1ccccc1; 3Pal = N[C@@H](Cc1cccnc1)C(=O)O; 4Pal = N[C@@H](Cc1ccncc1)C(=O)O; X58 = O=C(C1CC(N[*:1])C1)[*:2]; Ahp(2) = CCCCC[C@H](N)C(=O)O; Cba = N[C@@H](CC1CCC1)C(=O)O; hLeu = CC(C)CC[C@H](N)C(=O)O; NMeS = CN[C@@H](CO)C(=O)O; αMeC = C[C@](N)(CS)C(=O)O; NMeA = CN[C@@H](C)C(=O)O; Nle = CCCC[C@H](N)C(=O)O; Nva = CCC[C@H](N)C(=O)O

What follows are compounds tested against KRAS-G12D protein (Homo sapiens, UniProt P01116, G12D) (assay: SOS-mediated nucleotide exchange assay (BODIPY-GDP / Tb-streptavidin TR-FRET)).
Sequence of KRAS-G12D protein (P01116 1-188 isoform P01116-2 G12D): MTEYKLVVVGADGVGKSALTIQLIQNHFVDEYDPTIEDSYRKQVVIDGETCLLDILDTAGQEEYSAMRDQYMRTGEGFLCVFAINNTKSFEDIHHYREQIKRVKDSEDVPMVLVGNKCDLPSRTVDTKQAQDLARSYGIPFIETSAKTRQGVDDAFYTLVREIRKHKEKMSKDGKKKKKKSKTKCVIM
Type: biochemical

SMILES | EC50 [nM]
CCCC[C@@H]1NC(=O)[C@H](Cc2cccnc2)NC(=O)[C@H](C)N(C)C(=O)[C@H](Cc2ccc(OC)cc2)NC(=O)C23CC(CNC(=O)[C@H](Cc4cccnc4)N(C)C(=O)[C@H](CCCC)NC(=O)[C@H](Cc4ccccc4F)NC1=O)(C2)C3 [compound 169, cyclo(TyrOMe-NMeA-3Pal-Nle-Phe2F-Nle-NMe3Pal-amBCP)] (cyclo([3Pal][Nle][Phe(2-F)][Nle][NMe3Pal][X1]Y(Me)[NMeA])) | 757
CCCC[C@@H]1NC(=O)[C@H](Cc2cccnc2)NC(=O)[C@H](CCCn2ccnc2)N(C)C(=O)[C@H](Cc2ccccc2)N(C)C(=O)C23CC(CNC(=O)[C@H](Cc4cccnc4)N(C)C(=O)[C@H](CCCC)NC(=O)[C@H](Cc4ccccc4F)NC1=O)(C2)C3 [compound 264, cyclo(NMeF-NMeNvalmid-3Pal-Nle-Phe2F-Nle-NMe3Pal-amBCP)] (cyclo([3Pal][Nle][Phe(2-F)][Nle][NMe3Pal][X1][NMeF][NMeNva(5-imidazol-1-yl)])) | 4030
CCCC[C@@H]1NC(=O)[C@H](Cc2ccncc2)NC(=O)[C@H](CCCNC(=N)N)NC(=O)[C@H](Cc2cccc3ccccc23)NC(=O)CSC[C@H](C(=O)O)NC(=O)[C@H](Cc2ccccc2)N(C)C(=O)[C@H](CCC)NC(=O)[C@H](Cc2ccc(O)cc2)NC1=O [compound 140, cyclo(INal-R-4Pal-Nle-Y-Nva-NMeF-dC-ClAc)] ({CH2CO}-[1Nal]R[4Pal][Nle]Y[Nva][NMeF][dC]-OH; thioether N-8) | 1170
CC(C)CC[C@@H]1NC(=O)[C@H](Cc2ccccc2F)NC(=O)[C@H](CC2CC2)NC(=O)[C@H](Cc2ncccn2)NC(=O)[C@H](C)N(C)C(=O)[C@H](Cc2ccccc2)OC(=O)C23CC(CNC(=O)[C@H](Cc4ccccc4)N(C)C1=O)(C2)C3 [compound 281, cyclo(FLac-NMeA-2PyrimAla-cPrA-Phe2F-hL-NMeF-amBCP)] (cyclo([Ala(cPr)][Phe(2-F)][hLeu][NMeF][X1][PhLac][NMeA][X28])) | 1210
CCC[C@@H]1NC(=O)[C@H](Cc2ccc(O)cc2)NC(=O)[C@H](CC(C)C)NC(=O)[C@H](Cc2ccc(O)cc2)NC(=O)[C@H](CCCNC(=N)N)NC(=O)[C@H](Cc2ccccc2)NC(=O)CSC[C@H](C(N)=O)NC(=O)[C@H](Cc2ccccc2)N(C)C1=O [compound 21, cyclo(F-R-Y-L-Y-Nva-NMeF-dCl-ClAc)] | 6420
CCCC[C@@H]1NC(=O)[C@H](Cc2ccc(N(C)C(=N)NC)cc2)NC(=O)[C@H](C)N(C)C(=O)[C@H](Cc2ccccc2)OC(=O)CSC[C@@](C)(C(N)=O)NC(=O)[C@H](Cc2cccnc2)N(C)C(=O)[C@H](CCCC)NC(=O)[C@H](Cc2ccccc2F)NC1=O [compound 397, cyclo(FLac-NMeA-Phe4GnMeMe-Nle-Phe2F-Nle-NMe3Pal-aMeCl-ClAc)] ({CH2CO}-[PhLac][NMeA][X18][Nle][Phe(2-F)][Nle][NMe3Pal][αMeC]-NH2; thioether N-8) | 2.73
CCCC[C@@H]1NC(=O)[C@H](Cc2ccc(C)nc2F)NC(=O)[C@H](C)N(C)C(=O)[C@H](Cc2ccccc2)OC(=O)C23CC(CNC(=O)[C@H](Cc4ccccc4)N(C)C(=O)[C@H](CCCC)NC(=O)[C@H](Cc4ccccc4F)NC1=O)(C2)C3 [compound 311, cyclo(FLac-NMeA-3Pal2F4Me-Nle-Phe2F-Nle-NMeF-amBCP)] (cyclo([NMeA][X81][Nle][Phe(2-F)][Nle][NMeF][X1][PhLac])) | 892
CCCC[C@@H]1NC(=O)[C@H](Cc2cncnc2)NC(=O)[C@H](CCCn2ccnc2)N(C)C(=O)[C@H](Cc2ccccc2)OC(=O)C23CC(CNC(=O)[C@H](Cc4ccccc4)N(C)C(=O)[C@H](CCCC)NC(=O)[C@H](Cc4ccccc4F)NC1=O)(C2)C3 (single isomer, unassigned) [compound 222, cyclo(FLac-NMeNvalmid-PyrimAla-Nle-Phe2F-Nle-NMeF-amBCP)] | 494
CCCC[C@@H]1NC(=O)[C@H](Cc2cccnc2)NC(=O)[C@H](CCCF)N(C)C(=O)[C@H](Cc2ccccc2)OC(=O)C23CC(CNC(=O)[C@H](Cc4cccnc4)N(C)C(=O)[C@H](CCCC)NC(=O)[C@H](Cc4ccccc4F)NC1=O)(C2)C3 [compound 239, cyclo(FLac-NMeNvaF-3Pal-Nle-Phe2F-Nle-NMe3Pal-amBCP)] (cyclo([3Pal][Nle][Phe(2-F)][Nle][NMe3Pal][X1][PhLac][X35])) | 297
CCCC[C@@H]1NC(=O)[C@H](Cc2ccc(O)cc2)NC(=O)[C@H](CC(C)C)NC(=O)[C@H](Cc2ccc(O)cc2)NC(=O)[C@H](CCCNC(=N)N)NC(=O)[C@H](Cc2ccc(Cl)cc2)NC(=O)CSCCNC(=O)[C@H](Cc2ccccc2)N(C)C1=O [compound 74, cyclo(-Phe4Cl-R-Y-L-Y-Nle-NMeF-Cysteamine-ClAc)] (cyclo(LY[Nle][NMeF][NHCH2CH2SCH2CO][Phe(4-Cl)]RY)) | 7070
CCCC[C@@H]1NC(=O)[C@H](Cc2ccc(OCCN3CCCC3)cc2)NC(=O)[C@H](C)N(C)C(=O)[C@H](Cc2ccccc2)OC(=O)C23CC(CNC(=O)[C@H](Cc4ccccc4)N(C)C(=O)[C@H](CCCC)NC(=O)[C@H](Cc4ccccc4F)NC1=O)(C2)C3 [compound 316, cyclo(FLac-NMeA-TyrOEtPyr-Nle-Phe2F-Nle-NMeF-amBCP)] (cyclo([NMeA]Y(Ethyl(2-pyrrolidin-1-yl))[Nle][Phe(2-F)][Nle][NMeF][X1][PhLac])) | 7.34
CCCCC[C@@H]1NC(=O)[C@H](Cc2ccc(OC)cc2)NC(=O)[C@H](CC2CCC2)NC(=O)[C@H](Cc2ccc(NC(=N)N)cc2)NC(=O)[C@H](CCCNC(=N)N)NC(=O)[C@H](Cc2ccccc2)NC(=O)CSC[C@H](C(N)=O)NC(=O)[C@H](Cc2ccccc2)N(C)C1=O [compound 352, cyclo(F-R-Phe4Gn-cBuA-TyrOMe-Ahp-NMeF-dCl-ClAc)] ({CH2CO}-FR[Phe(4-guanidino)][Cba]Y(Me)[Ahp(2)][NMeF][dC]-NH2; thioether N-8) | 4.92
CCCCC[C@@H]1NC(=O)[C@H](Cc2ccc(O)cc2)NC(=O)[C@H](CC(C)C)NC(=O)[C@H](Cc2ccc(O)cc2)NC(=O)[C@H](CCCNC(=N)N)NC(=O)[C@H](Cc2cccc3ccccc23)NC(=O)CSC[C@@H](C(N)=O)NC(=O)[C@H](Cc2ccccc2)N(C)C1=O [compound 7, cyclo(INal-R-Y-L-Y-Ahp-NMeF-Cl-ClAc)] ({CH2CO}-[1Nal]RYLY[Ahp(2)][NMeF]C-NH2; thioether N-8) | 1630
CCCC[C@@H]1NC(=O)[C@H](Cc2cccnc2)NC(=O)[C@H](COC)N(C)C(=O)[C@H](Cc2ccccc2)OC(=O)C23CC(CNC(=O)[C@H](Cc4cccnc4)N(C)C(=O)[C@H](CCCC)NC(=O)[C@H](Cc4ccccc4F)NC1=O)(C2)C3 [compound 255, cyclo(FLac-nMeSMe-3Pal-Nle-Phe2F-Nle-NMe3Pal-amBCP)] (cyclo([3Pal][Nle][Phe(2-F)][Nle][NMe3Pal][X1][PhLac][NMeS](Me))) | 6410
CCCCC[C@@H]1NC(=O)[C@H](Cc2ccc(OC)cc2)NC(=O)[C@H](CC2CCC2)NC(=O)[C@H](Cc2ccc(N3CCC[C@@H]3CN)cc2)NC(=O)[C@H](CCCNC(=N)N)NC(=O)[C@H](Cc2ccccc2)NC(=O)CSC[C@@](C)(C(N)=O)NC(=O)[C@H](Cc2ccccc2)N(C)C1=O [compound 391, cyclo(F-R~Phe4RamPyrr-cBuA-TyrOMe-Abp-NMeF-aMeCl-ClAc)] | 6.78
CCCC[C@@H]1NC(=O)[C@H](Cc2cc(F)c(OC)c(F)c2)NC(=O)[C@H](C)N(C)C(=O)[C@H](Cc2ccccc2)OC(=O)C23CC(CNC(=O)[C@H](Cc4ccccc4)N(C)C(=O)[C@H](CCCC)NC(=O)[C@H](Cc4ccccc4F)NC1=O)(C2)C3 [compound 310, cyclo(FLac-NMeA-TyrOMe35F2-Nle-Phe2F-Nle-NMeF-amBCP)] (cyclo([NMeA][X71][Nle][Phe(2-F)][Nle][NMeF][X1][PhLac])) | 140
CC(C)CC[C@@H]1NC(=O)[C@H](Cc2ccnc(F)c2F)NC(=O)[C@H](CC2CC2)NC(=O)[C@H](Cc2cncnc2)NC(=O)[C@H](C)N(C)C(=O)[C@H](Cc2ccccc2)OC(=O)C23CC(CNC(=O)[C@H](Cc4ccccc4)N(C)C1=O)(C2)C3 [compound 293, cyclo(FLac-NMeA-PyrimAla-cPrA-4Pal23F2-hL-NMeF-amBCP)] (cyclo([Ala(cPr)][X33][hLeu][NMeF][X1][PhLac][NMeA][Ala(pyrimidin-5-yl)])) | 259
CCCC[C@@H]1NC(=O)[C@H](Cc2cncnc2)NC(=O)[C@H](C)N(C)C(=O)[C@H](Cc2ccccc2)OC(=O)C23CC(CNC(=O)[C@H](Cc4ccccc4)N(C)C(=O)[C@H](CCCCF)NC(=O)[C@H](Cc4ccccc4F)NC1=O)(C2)C3 [compound 131, cyclo(FLac-NMeA-PyrimAla-Nle-Phe2F-NleF-NMeF-amBCP)] (cyclo([NMeA][Ala(pyrimidin-5-yl)][Nle][Phe(2-F)][X17][NMeF][X1][PhLac])) | 10.1
CCCC[C@@H]1NC(=O)[C@H](Cc2ccc(NC(=N)N)cc2)NC(=O)[C@H](CCCNC(=N)N)NC(=O)[C@H](Cc2ccccc2)NC(=O)C2CC(C2)NC(=O)[C@H](Cc2ccccc2)N(C)C(=O)[C@H](CCCC)NC(=O)[C@H](Cc2ccc(OC)cc2)NC1=O [compound 92, cyclo(F-R-Phe4Gn-Nle-TyrOMe-Nle-NMeF-acBu)] (cyclo(FR[Phe(4-guanidino)][Nle]Y(Me)[Nle][NMeF][X58])) | 13.9
COc1ccc(C[C@@H]2NC(=O)[C@H](CC3CCC3)NC(=O)[C@H](Cc3cccnc3)NC(=O)[C@H](CCCNC(=N)N)NC(=O)[C@H](Cc3ccccc3)NC(=O)CSC[C@](C)(C(N)=O)NC(=O)[C@@H]3CCCCCC[C@H](NC2=O)C(=O)N3C)cc1 [SEQ ID NO: 188, cyclo(F-R-3Pal-cBuA-TyrOMe-RdHagNMeHag-aMeC-C1Ac)] | 299
CCCC[C@@H]1NC(=O)[C@H](Cc2ccccc2F)NC(=O)[C@H](CC(C)C)NC(=O)[C@H](Cc2cncnc2)NC(=O)[C@H](C)N(C)C(=O)[C@H](Cc2ccccc2)OC(=O)C23CC(CNC(=O)[C@H](Cc4cccnc4)N(C)C1=O)(C2)C3 [compound 129, cyclo(FLac-NMeA-PyrimAla-L-Phe2F-Nle-NMe3Pal-amBCP)] (cyclo([PhLac][NMeA][Ala(pyrimidin-5-yl)]L[Phe(2-F)][Nle][NMe3Pal][X1])) | 4.38
CCCC[C@@H]1NC(=O)[C@H](Cc2cccnc2)NC(=O)[C@H](C)N(C)C(=O)[C@H](Cc2cccc(C)c2)NC(=O)C23CC(CNC(=O)[C@H](Cc4cccnc4)N(C)C(=O)[C@H](CCCC)NC(=O)[C@H](Cc4ccccc4F)NC1=O)(C2)C3 [compound 166, cyclo(Phe3Me-NMeA-3Pal-Nle-Phe2F-Nle-NMe3Pal-amBCP)] (cyclo([3Pal][Nle][Phe(2-F)][Nle][NMe3Pal][X1][Phe(3-Me)][NMeA])) | 22.3
